From patent US5686486A, “4-hydroxy-benzopyran-2-ones and 4-hydroxy-cycloalkyl[b]pyran-2-ones useful to treat retroviral infections” (priority 1995, dated 1997)
pKi: −log10 of the molar value. Where a name gives a salt, the structure may show the parent alone.

What was measured:
[1] = molecular target: T1, HIV-1 protease (Human immunodeficiency virus type 1 group M subtype B, UniProt P04585); experiment: biochemical; conditions: for inhibition at 0.123 µM: read-out: HIV-1 Protease % Inhib, dose 0.123 uM; for inhibition at 0.37 µM: read-out: HIV-1 Protease % Inhib, dose 0.370 uM; for inhibition at 1.1 µM: read-out: HIV-1 Protease % Inhib, dose 1.100 uM; for inhibition at 3.3 µM: read-out: HIV-1 Protease % Inhib, dose 3.300 uM; for inhibition at 10 µM: read-out: HIV-1 Protease % Inhib, dose 10.000 uM; for inhibition at 30 µM: read-out: HIV-1 Protease % Inhib, dose 30.000 uM
Summary of the method: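 Biotinylated, FITC-labeled peptide substrate (20 μl of 0.2 μM) incubated with HIV-1 protease (10 μl of 0.1 μM) and compound in 0.1 M sodium acetate pH 5.5, 1.0 M NaCl, 0.05% NP-40, 1 h, room temperature, dark. Streptavidin beads then capture uncleaved substrate; filtered labeled product read by fluorescence, giving percent inhibition.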

[2] = molecular target: T1, HIV-1 protease; experiment: biochemical; conditions: read-out: HIV-1 FITC KI
Summary of the method: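 Ki from two-fold serial inhibitor dilutions (24–48 concentrations) with 40 nM HIV-1 protease stock and 200 μM substrate stock, 90 min at room temperature; stopped with avidin beads. Reference inhibitor run in parallel; Ki by nonlinear least-squares fit.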

SMILES | inhibition at 0.123 µM [1] | inhibition at 0.37 µM [1] | inhibition at 1.1 µM [1] | inhibition at 3.3 µM [1] | inhibition at 10 µM [1] | inhibition at 30 µM [1] | pKi [2] | HIV-1 Protease % Inhib ([1]; dose 0.123 uM) | HIV-1 Protease % Inhib ([1]; dose 0.370 uM) | HIV-1 Protease % Inhib ([1]; dose 1.100 uM) | HIV-1 Protease % Inhib ([1]; dose 3.300 uM) | HIV-1 Protease % Inhib ([1]; dose 10.000 uM) | HIV-1 Protease % Inhib ([1]; dose 30.000 uM)
O=c1oc2c(c(O)c1C(c1cccc(S(=O)(=O)Nc3ccccc3)c1)C1CC1)CCCCCC2 (centres unmarked) [Example 400, N-Phenyl-3-[cyclopropyl(5,6,7,8,9, 10-hexahydro-4-hydroxy-2-oxo-2H-cycloocta[b]pyran-3-yl)methyl]-benzenesulfonamide] | 17.4% | 54.8% | 78.7% | 94.7% | 114% | 109% | 7.45 |  |  |  |  |  | 
N#Cc1ccc(S(=O)(=O)Nc2cccc(C(c3c(O)c4c(oc3=O)CCCCCC4)C3CC3)c2)cc1 (centres unmarked) [Example 402, Sodium Salt of 4-Cyano-N-[3-[cyclopropyl(5,6,7,8,9,10-hexahydro4-hydroxy-2-oxo-2H-cycloocta[b]pyran-3-yl)methyl]phenyl]-benzenesulfonamide] |  |  |  |  |  |  | 9.21 | 103.69% | 106.4% | 110.07% | 100.22% | 98.03% | 98.47%
O=c1oc2c(c(O)c1C(c1cccc(NS(=O)(=O)c3ccc(CBr)cc3)c1)C1CC1)CCCCCC2 (centres unmarked) [Example 403, 4-(Bromomethyl)-N-[3-[cyclopropyl(5,6,7,8,9,10-hexahydro-4-hydroxy-2-oxo-2H-cycloocta[b]pyran-3-yl)methyl]phenyl]-benzenesulfonamide] | 41.6% | 77.5% | 92.9% | 94.8% | 95.6% | 97% | 8.30 |  |  |  |  |  | 
O=c1oc2c(c(O)c1[C@H](c1cccc(NS(=O)(=O)c3ccc(S(=O)(=O)c4ccccc4)s3)c1)C1CC1)CCCCCC2 [Example 404] | 58.3% | 85.3% | 103% | 108% | 106% | 103% | 8.54 |  |  |  |  |  | 
O=c1oc2c(c(O)c1C(c1cccc(NS(=O)(=O)c3cccc(O)c3)c1)C1CC1)CCCCCC2 (centres unmarked) [Example 405, N-[3-[Cyclopropyl(5,6,7,8,9,10-hexahydro-4-hydroxy-2-oxo-2H-cycloocta[b]pyran-3-yl)methyl]phenyl]-3-hydroxy-benzenesulfonamide] | 46.5% | 88.6% | 101% | 106% | 101% | 77.2% | 8.50 |  |  |  |  |  | 
O=c1oc2c(c(O)c1C(c1cccc(NS(=O)(=O)c3ccc(O)cc3)c1)C1CC1)CCCCCC2 (centres unmarked) [Example 407, N-[3-[Cyclopropyl(5,6,7,8,9,10-hexahydro-4-hydroxy-2-oxo-2H-cycloocta[b]pyran-3-yl)methyl]phenyl]-4-hydroxy-benzenesulfonamide] | 26.8% | 74.7% | 91.2% | 98.1% | 107% | 113% | 8.18 |  |  |  |  |  | 
O=C(COCc1ccccc1)Nc1cccc(S(=O)(=O)Nc2cccc(C(c3c(O)c4c(oc3=O)CCCCCC4)C3CC3)c2)c1 (centres unmarked) [Example 408, 3-(Benzyloxyacetylamino)-N-[3-[cyclopropyl(5,6,7,8,9,10-hexahydro-4-hydroxy-2-oxo-2H-cycloocta[b]pyran-3-yl)methyl]phenyl]-benzenesulfonamide] | 38.4% | 70.1% | 88.9% | 98.5% | 91.7% | 107% | 7.85 |  |  |  |  |  | 
O=C(CO)Nc1cccc(S(=O)(=O)Nc2cccc(C(c3c(O)c4c(oc3=O)CCCCCC4)C3CC3)c2)c1 (centres unmarked) [Example 409, 3-(Hydroxyacetylamino)-N-[3-[cyclopropyl(5,6,7,8,9,10-hexahydro4-hydroxy-2-oxo-2H-cycloocta[b]pyran-3-yl)methyl]phenyl]-benzenesulfonamide] | 65.1% | 90.5% | 102% | 103% | 101% | 108% | 8.48 |  |  |  |  |  | 
